“And” between values parts separate entries of the source, which are not always exact repeats. Equal entries are not always repeated.
Legend:
[1] = test system: C. difficile spores (ATCC #43596); test: Hamster C. difficile infection (CDAD) protection model; type: in vivo, Syrian golden hamsters; settings: oral 0.5 mg/kg once daily for 5 days (MET 70 mg/kg three times daily for 5 days)
Procedure: Syrian golden hamsters were pretreated with 10 mg/kg clindamycin subcutaneously 24 hours before bacterial challenge. An inoculum of 20 C. difficile spores (ATCC #43596) in sterile saline was administered orally. Treatment was initiated 4 hours post-inoculation with dH2O, metronidazole (MET), vancomycin (VAN), or a compound of the present invention. Oral dosing regimens for VAN and compounds of Formula I were 0.5 mg/kg once daily for 5 days. MET was administered at 70 mg/kg three times daily for 5 days. CDAD was confirmed as the cause of death by observations at necropsy, including wet tail and/or macroscopic cecal alterations. The % protection provided by each therapy tested was calculated at 1 and 21 days post-dosing.

gram positive bacteria = test: Antimicrobial activity against a panel of organisms, summary statements; type: cell-based; settings: statement in words
Procedure: (§1) Compounds according to Formula I were tested for antimicrobial activity against a panel of organisms. Aerobic organisms, Staphylococcus aureus, Enterococcus faecalis and E. faecium, were tested by broth microdilution according to Clinical and Laboratory Standards Institute (CLSI) document M7-A7 (Clinical and Laboratory Standards Institute. Methods for Dilution Antimicrobial Susceptibility Tests for Bacteria that Grow Aerobically; Approved Standard—Seventh Edition. CLSI document M7-A7 [ISBN 1-56238-587-9]. Clinical and Laboratory Standards Institute, 940 West Valley Road, Suite 1400, Wayne, Pa. 19087-1898 USA, 2006) with modifications as described below. Mueller Hinton Broth (MHBc) was supplemented with 50 mg/L calcium (equivalent to human physiological levels of calcium) and assay plates were incubated 18-20 hours at 37° C. with aeration (200 rpm).
(§2) In all cases the final concentration of dimethyl sulfoxide incubated with cells is less than or equal to 1%. For minimum inhibitory concentration (MIC) calculations, 2-fold dilutions of compounds were added to wells of a microtiter plate containing 5×10^5 bacteria in a final volume of 100 μL of media. Following incubation, (18-20 hours at 37° C. with aeration at 200 rpm) growth was confirmed visually by placing plates over a viewing apparatus (stand with a mirror underneath) and then the optical density (OD600) was measured using a SpectraMax 340PC^384 plate reader. Growth was defined as turbidity that could be detected with the naked eye or achieving minimum OD600of 0.1. MIC values (in μg/mL) were defined as the lowest concentration producing no visible turbidity.

[2] = test system: daptomycin resistant Staph. aureus (DRSA), daptomycin resistant E. faecium (DREfm) and daptomycin resistance E. faecalis (DREfs); test: Activity against daptomycin resistant bacteria, summary statement; type: cell-based; settings: statement in words
Procedure: as §1, §2

[3] = test system: Enterococcus faecalis EFS.201 (ATCC 49452); type: cell-based; settings: ATCC 49452
Summary of the method: (§3)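 Broth microdilution per CLSI M7-A7 in Mueller Hinton broth supplemented with 50 mg/L calcium, 5×10^5 bacteria per well, 2-fold compound dilutions, DMSO ≤1%. Plates incubated 18-20 hours at 37° C with aeration (200 rpm); MIC (μg/mL) is the lowest concentration giving no visible turbidity.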

[4] = test system: Enterococcus faecium EFM.384, Daptomycin resistant mutant (14-A); type: cell-based; settings: MHBc with 50 mg/L calcium, 18-20 hours at 37° C.
Summary of the method: as §3

[5] = test system: Staphylococcus aureus SAU.399 (ATCC 43300), Methicillin and Oxacillin Resistant; type: cell-based; settings: MHBc with 50 mg/L calcium, 18-20 hours at 37° C.
Summary of the method: as §3

[6] = test system: Staphylococcus aureus SAU.42 (ATCC 29213); type: cell-based; settings: ATCC 29213
Summary of the method: as §3

[7] = test system: Enterococcus faecalis EFS.312, Daptomycin resistant mutant (EFA); type: cell-based; settings: MHBc with 50 mg/L calcium, 18-20 hours at 37° C.
Summary of the method: as §3

[8] = test system: Staphylococcus aureus SAU.278, Daptomycin resistant mutant (D10); type: cell-based; settings: MHBc with 50 mg/L calcium, 18-20 hours at 37° C.
Summary of the method: as §3

[9] = test system: NAP1 Clostridium difficile strain

SMILES	Mean % Protection 1 Day Post Dosing [1] [%]	Mean % Protection 21 Days Post Dosing [1] [%]	as active or more active than daptomycin (gram positive bacteria)	useful against daptomycin resistant strains of bacteria [2]	C. diff MIC90 (Clostridium difficile) [µg/mL]	Efs201 MIC [3] [µg/mL]	Efm384 MIC [4]	Sa399 MIC [5] [µg/mL]	Sa42 MIC [6] [µg/mL]	more active against bacteria than daptomycin (gram positive bacteria)	Efs312 MIC [7]	Sa278 MIC [8] [µg/mL]	C. diff MIC50 Nap-1 [9] [µg/mL]	C. diff MIC90 Nap-1 [9] [µg/mL]
CCCCCC12CCC(C(=O)N[C@@H](Cc3c[nH]c4ccccc34)C(=O)N[C@H](CC(N)=O)C(=O)N[C@@H](CC(=O)O)C(=O)N[C@@H]3C(=O)NCC(=O)N[C@@H](CCCN)C(=O)N[C@@H](CC(=O)O)C(=O)N[C@H](C)C(=O)N[C@@H](CC(=O)O)C(=O)NCC(=O)N[C@H](CO)C(=O)N[C@@H]([C@H](C)CC(=O)O)C(=O)N[C@@H](CC(=O)c4ccccc4N)C(=O)O[C@@H]3C)(CC1)CC2 [Compound 22, N-(4-pentylbicyclo[2.2.2]octane-1-carbonyl)-L-tryptophyl-D-asparaginyl-L-α-aspartyl-L-threonylglycyl-L-ornithyl-L-α-aspartyl-D-alanyl-L-α-aspartylglycyl-D-seryl-(3R)-3-methyl-L-α-glutamyl-(αS)-α,2-diamino-γ-oxobenzenebutanoic acid (13→4)-lactone]	85	38	as active or more active than daptomycin	useful against daptomycin resistant strains of bacteria	1	–	–	–	–	–	–	–	–	–
CCCCCCCc1ccc(C(=O)N[C@@H](Cc2c[nH]c3ccccc23)C(=O)N[C@H](CC(N)=O)C(=O)N[C@@H](CC(=O)O)C(=O)N[C@@H]2C(=O)NCC(=O)N[C@@H](CCCN)C(=O)N[C@@H](CC(=O)O)C(=O)N[C@H](C)C(=O)N[C@@H](CC(=O)O)C(=O)NCC(=O)N[C@H](CO)C(=O)N[C@@H]([C@H](C)CC(=O)O)C(=O)N[C@@H](CC(=O)c3ccccc3N)C(=O)O[C@@H]2C)cc1 [Compound 33, N-(4-heptylbenzoyl)-L-tryptophyl-D-asparaginyl-L-α-aspartyl-L-threonylglycyl-L-ornithyl-L-α-aspartyl-D-alanyl-L-α-aspartylglycyl-D-seryl-(3R)-3-methyl-L-α-glutamyl-(αS)-α,2-diamino-γ-oxobenzenebutanoic acid (13→4)-lactone]	85	69	as active or more active than daptomycin	useful against daptomycin resistant strains of bacteria	–	0.5	4 µg/mL and 2 µg/mL	0.125	0.25	more effective than daptomycin	–	–	–	–
CCCCCCCCc1ccc(C(=O)N[C@@H](Cc2c[nH]c3ccccc23)C(=O)N[C@H](CC(N)=O)C(=O)N[C@@H](CC(=O)O)C(=O)N[C@@H]2C(=O)NCC(=O)N[C@@H](CCCN)C(=O)N[C@@H](CC(=O)O)C(=O)N[C@H](C)C(=O)N[C@@H](CC(=O)O)C(=O)NCC(=O)N[C@H](CO)C(=O)N[C@@H]([C@H](C)CC(=O)O)C(=O)N[C@@H](CC(=O)c3ccccc3N)C(=O)O[C@@H]2C)cc1 [Compound 34, N-(4-octylbenzoyl)-L-tryptophyl-D-asparaginyl-L-α-aspartyl-L-threonylglycyl-L-ornithyl-L-α-aspartyl-D-alanyl-L-α-aspartylglycyl-D-seryl-(3R)-3-methyl-L-α-glutamyl-(αS)-α,2-diamino-γ-oxobenzenebutanoic acid (13→4)-lactone]	85	38	as active or more active than daptomycin	useful against daptomycin resistant strains of bacteria	1	–	2 µg/mL and 4 µg/mL	–	–	more effective than daptomycin	4 µg/mL and 8 µg/mL	–	–	–
CCCCCc1ccc(/C(C)=C/C(=O)N[C@@H](Cc2c[nH]c3ccccc23)C(=O)N[C@H](CC(N)=O)C(=O)N[C@@H](CC(=O)O)C(=O)N[C@@H]2C(=O)NCC(=O)N[C@@H](CCCN)C(=O)N[C@@H](CC(=O)O)C(=O)N[C@H](C)C(=O)N[C@@H](CC(=O)O)C(=O)NCC(=O)N[C@H](CO)C(=O)N[C@@H]([C@H](C)CC(=O)O)C(=O)N[C@@H](CC(=O)c3ccccc3N)C(=O)O[C@@H]2C)cc1 [Compound 49, N-{1-[(E)-3-(4-pentylphenyl)but-2-enoyl]}-L-tryptophyl-D-asparaginyl-L-α-aspartyl-L-threonylglycyl-L-ornithyl-L-α-aspartyl-D-alanyl-L-α-aspartylglycyl-D-seryl-(3R)-3-methyl-L-α-glutamyl-(αS)-α,2-diamino-γ-oxobenzenebutanoic acid (13→4)-lactone]	–	–	–	–	–	–	4 µg/mL	–	–	–	8 µg/mL and 4 µg/mL	1	0.25	0.50
CCCCCCC1CCC(c2ccc(C(=O)N[C@@H](Cc3c[nH]c4ccccc34)C(=O)N[C@H](CC(N)=O)C(=O)N[C@@H](CC(=O)O)C(=O)N[C@@H]3C(=O)NCC(=O)N[C@@H](CCCN)C(=O)N[C@@H](CC(=O)O)C(=O)N[C@H](C)C(=O)N[C@@H](CC(=O)O)C(=O)NCC(=O)N[C@H](CO)C(=O)N[C@@H]([C@H](C)CC(=O)O)C(=O)N[C@@H](CC(=O)c4ccccc4N)C(=O)O[C@@H]3C)cc2)CC1 (stereo partly drawn) [Compound 54, N-[4-(−4-hexylcyclohexyl)benzoyl]-L-tryptophyl-D-asparaginyl-L-α-aspartyl-L-threonylglycyl-L-ornithyl-L-α-aspartyl-D-alanyl-L-α-aspartylglycyl-D-seryl-(3R)-3-methyl-L-α-glutamyl-(αS)-α,2-diamino-γ-oxobenzenebutanoic acid (13→4)-lactone]	0	0	as active or more active than daptomycin	useful against daptomycin resistant strains of bacteria	–	–	–	–	–	more effective than daptomycin	–	–	–	–

— US20150337013A1, “NOVEL ANTIBACTERIAL AGENTS FOR THE TREATMENT OF GRAM POSITIVE INFECTIONS” (priority 2008, published 2015)
